Measured values published in PMC9905731, “PIN1 and PIN4 inhibition via parvulin impeders Juglone, PiB, ATRA, 6,7,4′-THIF, KPT6566, and EGCG thwarted hepatitis B virus replication” (Frontiers in Microbiology, 2023).

What follows are compounds tested on HBV cccDNA (assay: Chromatin immunoprecipitation (ChIP) in HBV-infected HepG2-hNTCP-C9-PIN4 KD cells). Conditions: 20 μM Juglone or PiB, 30 μM ATRA, 6,7,4′-THIF or KPT6566, 40 μM EGCG, vs solvent.
Assay type: cell-based, hepatitis B virus
Experimental: Chromatin immunoprecipitation (ChIP) was performed in HBV-infected HepG2-hNTCP-C9 PIN1 or PIN4 KD cells to determine the comparative effects of these parvulins on cccDNA (Figure 11D). The chromatins were prepared and immunoprecipitated with IgG or anti-PIN1, HBc, PIN4, acetylated H3 (anti-AcH3), RNA polymerase-II (anti-RNA Pol-II), and histone H3 antibodies and furthermore analyzed by semiquantitative PCR (GeneAmp PCR 2700, Applied Biosystems; [Bichko et al., 1985]; [Saeed et al., 2019], [2021]; [Piracha et al., 2020]). In contrast to endogenous PIN1, the endogenous PIN4 was recruited to HBV cccDNA. Of note, upon PIN1 KD, the recruitment of HBc protein to the cccDNA remains unchanged.
(A–F) HepG2-hNTCP-C9-PIN4 KD cells were mock-infected (lane 1) or HBV infected (lanes 2–3) and treated with solvent (lane 2), or parvulin inhibitors (A) 20 μM Juglone, (B) 20 μM PiB, (C) 30 μM ATRA, (D) 30 μM 6,7,4′-THIF, (E) 30 μM KPT6566, and (F) 40 μM EGCG. The chromatin solutions and ChIP were performed in HBV-infected HepG2-hNTCP-C9-PIN4 KD cells, as described in the “Material and Methods” section and were subjected to immunoprecipitation with normal rabbit polyclonal IgG, anti-PIN1, anti-PIN4, anti-RNA Pol II, anti-acetyl H3, or anti-H3 antibodies. The immunoprecipitated chromatins were analyzed by PCR. The presented data are representative of three independent experiments.
HBV cccDNA synthesis was examined using the protein-free Hirt cccDNA extraction method. Briefly, HBV-infected PIN1 or PIN4 KD cells at approximately 100% confluency were incubated for 10 days, lysed with 10 mM EDTA and 10 mM Tris–HCl [pH 7.5] containing 0.6% SDS-TE buffer, treated for 16 h by adding 5 M NaCl to the final concentration of 1 M, and precipitated by centrifugation for 30 min at 14,500 × g. The supernatants were subjected to multiple phenol extractions (two times) followed by cccDNA extraction via phenol/chloroform. The supernatant containing cccDNA was precipitated by ethanol and furthermore analyzed by Southern blotting. The HBV cccDNA ChIP was performed using cccDNA-specific primers and analyzed by PCR (GeneAmp 2,700, Applied Biosystems), as described previously ([Bichko et al., 1985]; [Piracha et al., 2018], [2020]; [Saeed et al., 2019], [2021]). From the clinical specimens, HBV cccDNA levels were examined, as described previously ([Zhang et al., 2017]), using 251F 5′-GAC TYG TGG TGG ACT TCT C-3′ and 1190R 5′-TCA GCA AAY ACT YGG CA-3′ set of primers.

SMILES	recruitments of endogenous PIN4 and HBc onto HBV cccDNA
O=c1c(-c2ccc(O)cc2)coc2cc(O)c(O)cc12 [6,7,4′-THIF, 6,7-dihydroxy-3-(4-hydroxyphenyl)-4H-chromen-4-one]	reduced
CC1=C(/C=C/C(C)=C/C=C/C(C)=C/C(=O)O)C(C)(C)CCC1 [ATRA, All-trans-retinoic acid]	reduced
O=C(O[C@@H]1Cc2c(O)cc(O)cc2O[C@@H]1c1cc(O)c(O)c(O)c1)c1cc(O)c(O)c(O)c1 [EGCG, Epigallocatechin gallate]	reduced
O=C1C=CC(=O)c2c(O)cccc21 [Juglone, 5-hydroxyl-1,4-naphthoquinone]	reduced
CC(C)(C)c1ccc(S(=O)(=O)N=C2C=C(SCC(=O)O)C(=O)c3ccccc32)cc1 [KPT6566, 2-[[4-[[[4-(1,1-dimethylethyl)phenyl]sulfonyl]imino]-1,4-dihydro-1-oxo-2-naphthalenyl]thio] acetic acid]	reduced
CCOC(=O)CN1C(=O)c2ccc3c4c(ccc(c24)C1=O)C(=O)N(CC(=O)OCC)C3=O [PiB, 1,3,6,8-tetrahydro-1,3,6,8-tetraoxo-benzo [lmn][3,8] phenanthroline-2,7-diacetic acid, 2,7-diethyl ester]	reduced
